In one test the test system is paw of rats. Nature of the test: Pharmacological test for anti-inflammatory properties (carrageenan rat paw swelling). It is filed as in vivo. To be noted: oral 1 hour before carrageenan (0.05 ml of 1%), swelling 4 hours after injection by plethysmography, dose not given. As for the experimental part:
1. Pharmacological test for anti-inflammatory properties.
The compounds to be tested are given as freshly prepared solutions or suspensions by oral route 1 hour before injecting the paw of rats with carrageenan which is a known inflammatory agent.
The inflammatory agent (carrageenan) either in solution or suspension is then injected into the plantar tissue of the right hind paw of each rat, the left paw remaining untreated and serving as control. Each animal receives, for example, 0.05 ml of an aqueous solution containing 1% by weight of carrageenan and 0.9% of sodium chloride.
4 hours after the injection of the inflammatory agent, the importance of swelling is determined by plethysmography and is expressed as a percent of the volume of the control paw.
The anti-inflammatory effect expressed as a percentage of inhibition is obtained by comparison between rats treated with the anti-inflammatory compound and a control group of rats.
(The carrageenan paw model is a standard test of acute inflammation.)

The next test relates to rats. Nature of the test: Pharmacological test for diuretic properties (urine volume). To be noted: 50 mg/kg gastric gavage, 25 ml/kg saline s.c., urine collected 4 hours, ml/kg of body weight. It is filed as in vivo. The protocol:
2. Pharmacological tests for diuretic properties Lots of 3 rats weighting 250-300 g have been constituted at random, each of them being submitted to the same treatment. The compound to be tested was administered by .[.gastric gavage at a dose of 50 ml/kg as a solution or a.]. .Iadd.gastric gavage at a dose of 50 mg/kg as a solution or a .[…].suspension in water containing 0.45% of methylcellulose (which is an inert mucilaginous substance). Control animals received only distilled water as a placebo. At the same time, all the animals received 25 ml/kg of physiological saline by subcutaneous injection. The rats were then placed in metabolic cages, each cage containing 3 animals receiving the same treatment. The urines have been collected during 4 hours. […] The diuresis is expressed in ml/kg of body weight.

As for “3-isopropylcarbamylsulfonamido-4-isopropylaminopyridine [JDL 363]”, in the test with paw of rats, the “% inhibition of acute oedema” value was determined as 63.2%. In the test on rats, this compound displayed a Diuresis of 40.1 mL/kg.

For the compound `O=C(NS(=O)(=O)c1cnccc1Nc1cccc(C(F)(F)F)c1)c1ccccc1` [C 2129, 3-benzoylsulfonamido-4-(3'-trifluoromethyl)-phenylaminopyridine], in the test on paw of rats, the “% inhibition of acute oedema” value is on record as 23.2%. The compound also returned a Diuresis in the test with rats of 30.3 mL/kg.

In the case of `NS(=O)(=O)c1cnccc1NCc1ccco1` [JDL 181, 3-sulfonamido-4-methylfurylamino-pyridine], the “% inhibition of acute oedema” value in the test with paw of rats is 21.6%. Besides, in the test on rats, the Diuresis is 14.8 mL/kg.

With `CCCCNC(=O)NS(=O)(=O)c1cnccc1Nc1cccc(Cl)c1` [JDL 344, 3-butylcarbamylsulfonamido-4-(3'-chloro)-phenylaminopyridine], the “% inhibition of acute oedema” value in the test with paw of rats was 82.4%. The compound also showed a Diuresis with rats of 66.9 mL/kg.

On to `CCCNC(=O)NS(=O)(=O)c1cnccc1Nc1cccc(C(F)(F)F)c1` [JDL 355, 3-propylcarbamylsulfonamido-4-(3'-trifluoromethyl)phenylaminopyridine], for which the “% inhibition of acute oedema” value in the test with paw of rats came out at 48.8%. The compound further yielded a Diuresis in the test with rats of 57.0 mL/kg.

`CCCCNC(=O)NS(=O)(=O)c1cnccc1Nc1cccc(C(F)(F)F)c1` [JDL 356, 3-butylcarbamylsulfonamido-4-(3'-trifluoromethyl)-phenylaminopyridine]: the “% inhibition of acute oedema” value in the test on paw of rats is on record as 80.8%. In addition, the Diuresis in the test with rats is 54.7 mL/kg.

As for `O=C(Nc1ccc(Cl)cc1)NS(=O)(=O)c1cnccc1Nc1cccc(C(F)(F)F)c1` [JDL 357, 3-parachlorophenylcarbamylsulfonamido-4-(3'-trifluoromethyl)-phenylaminopyridine], the “% inhibition of acute oedema” value in the test with paw of rats was 52.0%. Further, in the test with rats, the Diuresis was determined as 11.2 mL/kg.

`CCC(=O)NS(=O)(=O)c1cnccc1N(C)c1ccccc1` [JDL 358, 3-propionylsulfonamido-4-(N-methylanilino)-pyridine]: in the test with paw of rats, the “% inhibition of acute oedema” value worked out at 57.3%. The compound also showed a Diuresis with rats of 17.9 mL/kg.

As to `NS(=O)(=O)c1cnccc1Oc1cccc(Cl)c1` [JDL 360, 3-sulfonamido-4-(3'-chloro)-phenoxypyridine], the “% inhibition of acute oedema” value in the test with paw of rats was 33.6%. The compound also registered a Diuresis in the test on rats of 5.2 mL/kg.

As to `NS(=O)(=O)c1cnccc1Sc1cccc(Cl)c1` [JDL 361, 3-sulfonamido-4-(3'-chloro)-thiophenoxypyridine], the “% inhibition of acute oedema” value with paw of rats amounted to 56.8%. The Diuresis in the test on rats worked out at 9.6 mL/kg.

On to `CC(=O)NS(=O)(=O)c1cnccc1Sc1cccc(Cl)c1` [JDL 362, 3-acetylsulfonamido-4-(3-chloro)-thiophenoxy-pyridine], for which the “% inhibition of acute oedema” value in the test on paw of rats is given as 37.6%. The same compound came in with a Diuresis in the test on rats of 8.1 mL/kg.

`O=C(NC1CCCCC1)NS(=O)(=O)c1cnccc1Nc1cccc(C(F)(F)F)c1` [JDL 364, 3-cyclohexylcarbamylsulfonamido-4-(3'-trifluoromethyl)-phenylaminopyridine]: the “% inhibition of acute oedema” value in the test on paw of rats worked out at 58.4%. Besides, the Diuresis in the test on rats came out at 37.7 mL/kg.

As to `CCCNC(=O)NS(=O)(=O)c1cnccc1Oc1cccc(Cl)c1` [JDL 365, 3-propylcarbamylsulfonamido-4-(3'-chloro)-phenoxypyridine], the “% inhibition of acute oedema” value in the test with paw of rats was found to be 43.2%. Moreover, the Diuresis in the test with rats was 8.7 mL/kg.

As to `CCCCNC(=O)NS(=O)(=O)c1cnccc1Sc1cccc(Cl)c1` [JDL 366, 3-butylcarbamylsulfonamido-4-(3'-chloro)-thiophenoxypyridine], the “% inhibition of acute oedema” value in the test on paw of rats came to 56.0%. Moreover, the Diuresis in the test with rats was 11.1 mL/kg.

Take `CC(C)(C)NC(=O)NS(=O)(=O)c1cnccc1Nc1cccc(C(F)(F)F)c1` [JDL 367, 3-tertbutylcarbamylsulfonamido-4-(3'-trifluoromethyl)-phenylaminopyridine]: the “% inhibition of acute oedema” value with paw of rats is given as 80.0%. The compound further registered a Diuresis in the test with rats of 11.1 mL/kg.

For `O=C(Nc1ccccc1)NS(=O)(=O)c1cnccc1Nc1cccc(C(F)(F)F)c1` [JDL 368, 3-phenylcarbamylsulfonamido-4-(3'-trifluoromethyl)phenylaminopyridine], the “% inhibition of acute oedema” value in the test with paw of rats is 57.0%. The Diuresis in the test with rats is 6.1 mL/kg.

Turning to `CCCNC(=O)NS(=O)(=O)c1cnccc1Nc1cccc(Cl)c1` [JDL 375, 3-propylcarbamylsulfonamido-4-(3'-chloro)-phenylaminopyridine], in the test with paw of rats, the “% inhibition of acute oedema” value was found to be 46.4%. Further, in the test on rats, the Diuresis worked out at 80.5 mL/kg.

On to `CNC(=O)NS(=O)(=O)c1cnccc1Nc1cccc(C(F)(F)F)c1` [JDL 378, 3-methylcarbamylsulfonamido-4-(3'-trifluoromethyl)-phenylaminopyridine], for which, in the test with paw of rats, the “% inhibition of acute oedema” value is listed as 74.4%. In the test with rats, this compound showed a Diuresis of 84.0 mL/kg.

As for `CNC(=O)NS(=O)(=O)c1cnccc1Nc1cccc(Cl)c1` [JDL 379, 3-methylcarbamylsulfonamido-4-(3'-chloro)-phenylaminopyridine], the “% inhibition of acute oedema” value in the test with paw of rats is recorded as 63.2%. In the test with rats, this compound came in with a Diuresis of 76.5 mL/kg.

For the compound `CCCNC(=O)NS(=O)(=O)c1cnccc1N(C)c1ccccc1` [JDL 383, 3-pripylcarbamylsulfonamido-4-N-methyl-anilinopyridine], the “% inhibition of acute oedema” value in the test on paw of rats was 55.2%. The same compound yielded a Diuresis in the test with rats of 57.8 mL/kg.

Consider `CCCNC(=O)NS(=O)(=O)c1cnccc1Sc1cccc(Cl)c1` [JDL 384, 3-propylcarbamylsulfonamido-4-(3'-chloro)-thiophenoxypyridine], for which, in the test on paw of rats, the “% inhibition of acute oedema” value is 66.4%. This compound came in with a Diuresis with rats of 12.8 mL/kg.

Turning to `CC(C)(C)NC(=O)NS(=O)(=O)c1cnccc1Sc1cccc(Cl)c1` [JDL 385, 3-tertiobutylcarbamylsulfonamido-4-(3'-chloro)-thiophenoxypyridine], the “% inhibition of acute oedema” value in the test on paw of rats is given as 46.6%. Further, the Diuresis with rats came to 17.6 mL/kg.

Turning to `CCNC(=O)NS(=O)(=O)c1cnccc1Nc1cccc(C(F)(F)F)c1` [JDL 386, 3-ethylcarbamylsulfonamido-4-(3'-trifluoromethyl)-phenylaminopyridline], the “% inhibition of acute oedema” value with paw of rats was determined as 80.8%. The Diuresis with rats is 80.5 mL/kg.

Regarding `CCNC(=O)NS(=O)(=O)c1cnccc1Nc1cccc(Cl)c1` [JDL 387], the “% inhibition of acute oedema” value with paw of rats is on record as 76.8%. For the same compound, the Diuresis in the test with rats turned out to be 80.9 mL/kg.

On to `CC(C)(C)NC(=O)NS(=O)(=O)c1cnccc1Nc1cccc(Cl)c1` [JDL 388, 3-tertiobutylcarbamylsulfonamido-4-(3'-chloro)-phenylaminopyridine], for which, in the test with paw of rats, the “% inhibition of acute oedema” value is reported as 66.4%. Also, the Diuresis in the test with rats came out at 37.0 mL/kg.

With `O=C(NC1CCCCC1)NS(=O)(=O)c1cnccc1Nc1cccc(Cl)c1` [JDL 389, 3-cyclohexylcarbamylsulfonamido-4-(3'-chloro)-phenylaminopyridine], the “% inhibition of acute oedema” value in the test with paw of rats turned out to be 64.0%. Besides, the Diuresis with rats was 73.3 mL/kg.

`O=C(Nc1ccccc1)NS(=O)(=O)c1cnccc1Nc1cccc(Cl)c1` [JDL 390, 3-phenylcarbamylsulfonamido-4-(3'-chloro)-phenylaminopyridine]: the “% inhibition of acute oedema” value in the test with paw of rats came to 47.2%. Besides, the Diuresis with rats amounted to 16.9 mL/kg.

Turning to `O=C(Nc1ccc(Cl)cc1)NS(=O)(=O)c1cnccc1Nc1cccc(Cl)c1` [JDL 391, 3-parachlorophenylcarbamylsulfonamido-4-(3'-chloro)-phenylaminopyridine], the “% inhibition of acute oedema” value with paw of rats came to 74.4%. For the same compound, the Diuresis in the test on rats is 9.6 mL/kg.

For `CNC(=O)NS(=O)(=O)c1cnccc1Nc1ccccc1Cl` [JDL 402, 3-methylcarbamylsulfonamidio-4-(2'-chloro)-phenylaminopyridine], the “% inhibition of acute oedema” value in the test on paw of rats was found to be 76.8%. Moreover, the Diuresis in the test with rats amounted to 65.4 mL/kg.

With `CCNC(=O)NS(=O)(=O)c1cnccc1Nc1ccccc1Cl` [JDL 403, 3-ethylcarbamylsulfonamido-4-(2'-chloro)-phenylaminopyridine], the “% inhibition of acute oedema” value in the test with paw of rats stood at 76.8%. The Diuresis in the test with rats is 74.9 mL/kg.

For the compound `CCCNC(=O)NS(=O)(=O)c1cnccc1Nc1ccccc1Cl` [JDL 404, 3-propylcarbamylsulfonamido-4-(2'-chloro)-phenylaminopyridine], the “% inhibition of acute oedema” value with paw of rats is given as 76.8%. This compound registered a Diuresis with rats of 43.1 mL/kg.

For the compound `CC(C)NC(=O)NS(=O)(=O)c1cnccc1Nc1cccc(Cl)c1` [JDL 413, 3-isopropylcarbamylsulfonamido-4-(3'-chloro)-phenylaminopyridine], in the test with paw of rats, the “% inhibition of acute oedema” value is reported as 76.8%. Moreover, the Diuresis in the test with rats stood at 92.5 mL/kg.

In the case of `CC(C)NC(=O)NS(=O)(=O)c1cnccc1Nc1cc(Cl)cc(Cl)c1` [JDL 474, 3-isopropylcarbamylsulfonamido-4-(3',5'-dichloro)-phenylaminopyridine], the Diuresis with rats amounted to 33.3 mL/kg.

Take `CNC(=O)NS(=O)(=O)c1cnccc1Nc1cccnc1` [JDL 506, 3-methylcarbamylsulfonamido-4-(3'-pyridylamino)-pyridine]: in the test with rats, the Diuresis turned out to be 13.5 mL/kg.

The record behind these values is patent publication USRE30633E, “3-Lower alkylcarbamylsulfonamido-4-phenylaminopyridines, n-oxides, derivatives thereof and pharmaceutical compositions containing same” (A. Christiaens Societe Anonyme, priority 1974, dated 1981).
